Results taken from ChEMBL document CHEMBL3763120, “Phenyl Benzenesulfonylhydrazides Exhibit Selective Indoleamine 2,3-Dioxygenase Inhibition with Potent in Vivo Pharmacodynamic Activity and Antitumor Efficacy” (J Med Chem, 2016).

What was measured:
[1] = AUC (0 to infinity) in Sprague-Dawley rat plasma at 2 mg/kg, iv by LC-MS/MS analysis; format: ADME, organism-based; parameters: dose 2 mg/kg, route intravenous, time infinity
[2] = target: Neuropeptide Y receptor type 1 (Homo sapiens) (UniProt P25929); experiment: Inhibition of Neuropeptide Y1 receptor (unknown origin) at 10 uM
Chain of Neuropeptide Y receptor type 1 (Homo sapiens) (P25929 whole entry): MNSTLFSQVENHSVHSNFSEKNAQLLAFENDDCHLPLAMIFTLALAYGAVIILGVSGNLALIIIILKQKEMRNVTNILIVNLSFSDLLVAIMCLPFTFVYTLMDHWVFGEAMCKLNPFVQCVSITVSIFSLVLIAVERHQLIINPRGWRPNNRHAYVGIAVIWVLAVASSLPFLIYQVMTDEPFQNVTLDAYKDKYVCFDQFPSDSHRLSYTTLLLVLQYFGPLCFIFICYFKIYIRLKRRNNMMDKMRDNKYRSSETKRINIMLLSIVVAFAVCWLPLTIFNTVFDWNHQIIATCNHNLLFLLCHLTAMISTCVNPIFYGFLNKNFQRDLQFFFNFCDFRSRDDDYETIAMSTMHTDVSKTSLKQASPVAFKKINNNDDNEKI

`O=C1Cc2cc(S(=O)(=O)NNc3ccc(Br)cc3)ccc2N1` showed an AUC(0-inf) [1] of 2430 ng·h/mL and an inhibition [2] of less than 50%.
